According to patent US8883798B2, “Pyrimidine compounds inhibiting the formation of nitric oxide and prostaglandin E2, method of production thereof and use thereof” (Ustav Organicke Chemie a Biochemie Akademie Ved CR, V.V.I., priority 2011, dated 2014):

melting point	SMILES
67 to 68 °C	CCC(C)c1c(Cl)nc(/N=C/N(C)C)nc1Cl (stereo not shown) [Substance 21, 5-sec-butyl-4,6-dichloro-2-{[(dimethylamino)methylene]amino}pyrimidine]
63 to 65 °C	CN(C)/C=N/c1nc(Cl)c(Cc2ccccc2)c(Cl)n1 [Substance 23, 5-benzyl-4,6-dichloro-2-{[(dimethylamino)methylene]amino}pyrimidine]
67 to 68 °C	CN(C)/C=N/c1nc(Cl)c(-c2ccccc2)c(Cl)n1 [Substance 24, 4,6-dichloro-2-{[(dimethylamino)methylene]amino}-5-phenylpyrimidine]
189 to 190 °C	Cc1c(Cl)nc(N)nc1Cl [Substance 25, 2-amino-4,6-dichloro-5-methylpyrimidine]
183 to 185 °C	CCc1c(Cl)nc(N)nc1Cl [Substance 26, 2-amino-4,6-dichloro-5-ethylpyrimidine]
182 to 183 °C	CCCc1c(Cl)nc(N)nc1Cl [Substance 27, 2-amino-4,6-dichloro-5-propylpyrimidine]
175 to 176 °C	CC(C)c1c(Cl)nc(N)nc1Cl [Substance 29, 2-amino-4,6-dichloro-5-isopropylpyrimidine]
159 to 160 °C	CCC(C)c1c(Cl)nc(N)nc1Cl (stereo not shown) [Substance 30, 2-amino-5-(sec-butyl)-4,6-dichloropyrimidine]
193 to 195 °C	Nc1nc(Cl)c(-c2ccccc2)c(Cl)n1 [Substance 31, 2-amino-4,6-dichloro-5-phenylpyrimidine]
175 to 177 °C	C=CCc1c(Cl)nc(N)nc1Cl [Substance 32, 5-allyl-2-amino-4,6-dichloropyrimidine]
159 to 161 °C	C#CCc1c(Cl)nc(N)nc1Cl [Substance 33, 2-amino-4,6-dichloro-5-(prop-2-yn-1-yl)pyrimidine]
170 to 171 °C	[2H]C([2H])([2H])C([2H])([2H])C([2H])([2H])C([2H])([2H])c1c(Cl)nc(N)nc1Cl [Substance 35, 2-amino-5-(perdeutero-butyl)-4,6-dichloropyrimidine]
173 to 174 °C	CCC(C)c1c(I)nc(N)nc1I (stereo not shown) [Substance 36, 2-amino-5-(sec-butyl)-4,6-diiodopyrimidine]

The remaining lines, values behind:

SMILES	melting point
Cc1c(Cl)nc(/N=C/N(C)C)nc1Cl [Substance 13, 4,6-dichloro-5-methyl-2-{[(dimethylamino)methylene]amino}pyrimidine]	84 to 86 °C
CCc1c(Cl)nc(/N=C/N(C)C)nc1Cl [Substance 14, 4,6-dichloro-5-ethyl-2-{[(dimethylamino)methylene]amino}pyrimidine]	78 to 80 °C
CCCc1c(Cl)nc(/N=C/N(C)C)nc1Cl [Substance 15, 4,6-dichloro-2-{[(dimethylamino)methylene]amino}-5-propylpyrimidine]	76 to 78 °C
CC(C)c1c(Cl)nc(/N=C/N(C)C)nc1Cl [Substance 16, 4,6-dichloro-5-isopropyl-2-{[(dimethylamino)methylene]amino}pyrimidine]	77 to 78 °C
C=CCc1c(Cl)nc(/N=C/N(C)C)nc1Cl [Substance 17, 5-allyl-4,6-dichloro-2-{[(dimethylamino)methylene]amino}pyrimidine]	80 to 81 °C
C#CCc1c(Cl)nc(/N=C/N(C)C)nc1Cl [Substance 18, 4,6-dichloro-2-{[(dimethylamino)methylene]amino}-5-(prop-2-yn-1-yl)pyrimidine]	82 to 83 °C
CCCCc1c(Cl)nc(/N=C/N(C)C)nc1Cl [Substance 19, 5-butyl-4,6-dichloro-2-{[(dimethylamino)methylene]amino}pyrimidine]	65 to 67 °C
CCCCc1c(Cl)nc(N)nc1Cl [Substance 28, 2-amino-5-butyl-4,6-dichloropyrimidine]	169 to 170 °C
Nc1nc(Cl)c(Cc2ccccc2)c(Cl)n1 [Substance 34, 2-amino-5-benzyl-4,6-dichloropyrimidine]	196 to 197 °C
